# Experiments:
# Format in all cases: cell-based
# G551D-CFTR = molecular target: T1, G551D-CFTR (Homo sapiens, UniProt P13569, G551D); experiment: Short-circuit current in FRT cells expressing G551D-CFTR; conditions: in the presence of forskolin, vs genistein
# T1 construct: expressed in transfected cells; host or cells: Fischer rat thyroid (FRT) epithelial cells, stably transfected
# Procedure: Potentiator studies were also performed in FRT cells expressing G551D-CFTR, a CF-causing CFTR mutation with defective channel gating but not plasma membrane trafficking. […] Where indicated, genistein (100 μM) and CFTRinh-172 (10 μM) were added. Graphs are representative of 3 sets of measurements. […] Measurements were made in the presence of 20 μM forskolin.
# ΔF508-CFTR [1] = molecular target: T2, ΔF508-CFTR (Homo sapiens, UniProt P13569, DEL508-508); experiment: Corrector assay by YFP/iodide fluorescence quenching in ΔF508-CFTR expressing A549 cells; conditions: 24 h at 37° C.
# T2 construct: expressed in transfected cells; host or cells: Fischer rat thyroid (FRT) epithelial cells, stably transfected
# Procedure: FIGS. 6A and 6B show graphs of Compound 22 activity in G551D-CFTR expressing FRT cells and DF508-CFTR expressing […] cells, according to embodiments of the present disclosure. […] (top) or 27° C. (bottom) for 24 h prior to iodide influx measurement, according to embodiments of the present disclosure. Graphs are representative of 3 sets of measurements.
# (§1) To test whether Compound 22 is active in a different cell background, potentiator and corrector assays were performed in ΔF508-CFTR transfected A549 cells, which are of human lung epithelial origin. […] Apparent EC50 for Compound 22 potentiator activity was about 8 μM (FIG. 6B). […] (FIG. 6C, top). Compound 22 was further tested for corrector activity in A549 cells under the low-temperature synergy condition; however, DF508-CFTR was fully activated by forskolin ([…]) and genistein ([…]) in this cell model (FIG. 6C, bottom).
# ΔF508-CFTR [2] = molecular target: T2, ΔF508-CFTR; experiment: Potentiator assay by YFP/iodide fluorescence quenching in ΔF508-CFTR expressing A549 cells
# Procedure: Representative fluorescence quenching curves (FIG. 6B (top)) shown with deduced Compound 22 and genistein concentration dependence (FIG. 6B (bottom), SEM, n=4). Fluorescence plate reader assays in FIG. 6B confirmed that Compound 22 activated G551D-CFTR in the presence of forskolin, with lower maximal efficacy than genistein.
# as §1
# ΔF508-CFTR [3] = molecular target: T2, ΔF508-CFTR; experiment: Corrector assay, YFP fluorescence plate reader iodide influx in ΔF508-CFTR expressing FRT cells
# How it was run: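 Corrector mode: cells treated 18–24 h at 37 °C with compound (25 μM screen, 0–25 μM dose-response), then 10 min forskolin 20 μM + genistein 50 μM. Potentiator mode: 27 °C-rescued cells given forskolin 20 μM + compound (0–25 or 0–50 μM) for 10 min. Initial iodide influx rate from exponential fit of YFP quenching, normalized to background-subtracted initial fluorescence.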
# T2 sequence (P13569 with tags, fused parts or gaps DEL508-508): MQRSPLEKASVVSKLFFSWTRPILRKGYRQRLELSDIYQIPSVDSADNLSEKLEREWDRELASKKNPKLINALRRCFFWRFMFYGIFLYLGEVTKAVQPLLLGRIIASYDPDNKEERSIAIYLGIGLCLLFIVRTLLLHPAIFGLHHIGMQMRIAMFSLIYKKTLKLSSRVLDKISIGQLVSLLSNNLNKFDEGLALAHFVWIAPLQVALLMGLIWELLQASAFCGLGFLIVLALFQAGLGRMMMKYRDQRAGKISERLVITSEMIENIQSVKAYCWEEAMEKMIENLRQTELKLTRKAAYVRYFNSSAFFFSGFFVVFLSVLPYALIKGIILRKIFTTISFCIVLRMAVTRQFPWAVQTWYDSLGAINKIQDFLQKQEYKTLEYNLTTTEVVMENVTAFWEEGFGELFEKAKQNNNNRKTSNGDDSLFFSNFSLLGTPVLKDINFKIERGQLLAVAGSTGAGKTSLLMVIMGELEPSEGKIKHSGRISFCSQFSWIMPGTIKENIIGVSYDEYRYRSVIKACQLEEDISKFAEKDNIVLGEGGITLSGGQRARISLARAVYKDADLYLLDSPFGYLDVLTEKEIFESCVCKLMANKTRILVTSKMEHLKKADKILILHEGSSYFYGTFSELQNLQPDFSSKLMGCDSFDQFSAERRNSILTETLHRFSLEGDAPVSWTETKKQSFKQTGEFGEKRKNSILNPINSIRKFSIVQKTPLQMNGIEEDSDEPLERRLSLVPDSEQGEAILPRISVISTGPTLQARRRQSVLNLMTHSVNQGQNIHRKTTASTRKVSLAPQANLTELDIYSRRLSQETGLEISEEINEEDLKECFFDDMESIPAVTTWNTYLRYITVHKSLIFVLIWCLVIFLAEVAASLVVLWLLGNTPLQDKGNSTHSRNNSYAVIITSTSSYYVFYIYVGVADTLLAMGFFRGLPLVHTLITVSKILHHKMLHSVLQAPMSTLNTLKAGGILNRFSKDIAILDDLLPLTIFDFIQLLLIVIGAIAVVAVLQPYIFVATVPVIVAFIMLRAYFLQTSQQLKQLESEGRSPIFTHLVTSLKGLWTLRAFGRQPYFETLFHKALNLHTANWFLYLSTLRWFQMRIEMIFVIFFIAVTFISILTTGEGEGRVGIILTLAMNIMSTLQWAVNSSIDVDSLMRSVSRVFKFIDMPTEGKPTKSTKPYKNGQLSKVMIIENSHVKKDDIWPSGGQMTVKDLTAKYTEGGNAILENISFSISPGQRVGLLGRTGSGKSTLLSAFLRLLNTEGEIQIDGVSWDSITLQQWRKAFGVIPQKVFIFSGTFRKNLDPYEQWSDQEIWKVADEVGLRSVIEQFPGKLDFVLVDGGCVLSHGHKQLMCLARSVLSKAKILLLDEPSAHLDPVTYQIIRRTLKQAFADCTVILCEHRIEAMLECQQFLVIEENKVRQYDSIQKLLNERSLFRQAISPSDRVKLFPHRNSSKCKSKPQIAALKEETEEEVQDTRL
# T1 sequence (P13569 whole entry G551D): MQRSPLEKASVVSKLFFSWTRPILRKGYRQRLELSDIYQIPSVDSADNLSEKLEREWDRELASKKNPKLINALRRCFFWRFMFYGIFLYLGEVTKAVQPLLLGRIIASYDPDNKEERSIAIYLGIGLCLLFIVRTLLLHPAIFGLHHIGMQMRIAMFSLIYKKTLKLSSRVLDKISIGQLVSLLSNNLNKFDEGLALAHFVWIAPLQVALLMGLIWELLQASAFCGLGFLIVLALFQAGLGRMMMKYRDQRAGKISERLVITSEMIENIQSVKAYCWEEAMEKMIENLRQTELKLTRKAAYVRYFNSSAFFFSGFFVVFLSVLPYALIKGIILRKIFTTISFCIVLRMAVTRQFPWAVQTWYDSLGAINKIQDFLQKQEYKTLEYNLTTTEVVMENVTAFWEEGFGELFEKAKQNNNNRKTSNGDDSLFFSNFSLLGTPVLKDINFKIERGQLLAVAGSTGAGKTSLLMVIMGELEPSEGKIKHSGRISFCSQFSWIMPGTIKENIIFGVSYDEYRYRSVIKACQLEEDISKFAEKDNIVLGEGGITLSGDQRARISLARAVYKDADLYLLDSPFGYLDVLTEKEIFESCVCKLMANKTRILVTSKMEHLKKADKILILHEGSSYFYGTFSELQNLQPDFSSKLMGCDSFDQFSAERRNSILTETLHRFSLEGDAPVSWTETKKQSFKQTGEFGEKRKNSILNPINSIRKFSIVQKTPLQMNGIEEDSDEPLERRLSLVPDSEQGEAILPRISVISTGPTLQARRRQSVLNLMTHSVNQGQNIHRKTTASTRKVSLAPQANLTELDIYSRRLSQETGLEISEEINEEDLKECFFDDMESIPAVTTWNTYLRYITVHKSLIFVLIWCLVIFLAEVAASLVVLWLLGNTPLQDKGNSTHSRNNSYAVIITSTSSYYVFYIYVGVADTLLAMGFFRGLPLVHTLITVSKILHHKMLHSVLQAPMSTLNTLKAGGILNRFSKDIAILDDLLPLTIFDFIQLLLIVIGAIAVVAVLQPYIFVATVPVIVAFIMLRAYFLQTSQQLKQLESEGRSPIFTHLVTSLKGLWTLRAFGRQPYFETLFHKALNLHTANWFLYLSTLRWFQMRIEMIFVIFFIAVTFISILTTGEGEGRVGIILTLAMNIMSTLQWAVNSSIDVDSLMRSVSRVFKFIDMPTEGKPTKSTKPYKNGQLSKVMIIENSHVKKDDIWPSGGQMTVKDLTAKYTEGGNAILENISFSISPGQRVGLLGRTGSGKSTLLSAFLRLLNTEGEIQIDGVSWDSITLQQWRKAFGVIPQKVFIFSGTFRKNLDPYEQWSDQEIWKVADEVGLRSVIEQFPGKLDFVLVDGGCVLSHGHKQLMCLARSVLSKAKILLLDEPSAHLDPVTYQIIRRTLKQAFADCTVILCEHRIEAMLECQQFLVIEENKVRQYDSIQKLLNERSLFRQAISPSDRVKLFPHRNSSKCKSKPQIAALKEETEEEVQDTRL
structure (smiles),measurement,setting,value
"COc1cccc(C(=O)NCCNc2nc3cc(C)cc(C)c3cc2C#N)c1 [Compound 22, N-(2-((3-Cyano-5,7-dimethylquinolin-2-yl)amino)ethyl)-3-methoxybenzamide]",potentiator action on G551D-CFTR chloride current,G551D-CFTR,weak potentiator
same,"corrector activity in A549 cells, in words",ΔF508-CFTR [1],little corrector activity compared to Corr-4a
same,"potentiator activity in A549 cells, in words",ΔF508-CFTR [2],comparable to that in FRT cells
same,EC50,"ΔF508-CFTR [2]; A549 cells, read-out: Apparent EC50 for potentiator activity",~8 µM
same,iodide influx after incubation at 27° C.,"ΔF508-CFTR [3]; Compound 22 (20 µM) or Corr-4a (10 µM), 24 h, 27° C., vs low-temperature rescue control",substantially increased iodide influx
same,iodide influx after incubation at 37° C.,"ΔF508-CFTR [3]; Compound 22 (20 µM) or Corr-4a (10 µM), 24 h, 37° C., with genistein",increased iodide influx
same,"corrector and potentiator activities, in words","ΔF508-CFTR [3]; concentration-dependence in corrector and potentiator I− influx assays (FIG. 2, FIG. 7)",both corrector and potentiator activities
same,additivity of corrector action with Corr-4a (iodide influx),"ΔF508-CFTR [3]; maximal concentrations of Compound 22 and Corr-4a, alone or in combination",significant additivity

# — patent US9073863B2, “Cyanoquinoline compounds having activity in correcting mutant-CFTR processing and increasing ion transport and uses thereof” (The Regents of the University of California, priority 2011, dated 2015)
